# Measurements published in patent US9346846B1, “Anti-cancer compounds and methods for treating cancer” (YALE UNIVERSITY, priority 2013, dated 2016).
# Entries after “also recorded” stand apart in the source; their conditions may differ.
# Tests used:
# Assay type in all cases: cell-based
# pCHK1 = experiment: Western blotting of treated MCF7 cells, pCHK1; details: 24 hour treatment, listed as LA
# Procedure: (§1) MCF-7 are seeded into 6-well dishes and treated with various doses of (−)-lomaiviticin A (LA), in the absence and presence of ionizing radiation (IR) at a dose rate of 2.4295 Gy/min (2 Gy, X-Ray) for 24 hour. After treatment, the cells were harvested for lysis in AZ lysis buffer ([…] Tris, 250 mM NaCl, 1% Igepal, 0.1% SDS, 5 mM EDTA, 10 mM Na4P2O7, 10 mM NaF) containing protease and phosphatase inhibitors. Western blotting was performed (FIG. 26).
# (§2) Primary antibodies used were: mouse monoclonal anti-Ser1981-pATM (10H11.E12, Millipore, Temecula, Calif.), mouse monoclonal anti-vinculin (SPM227, Abcam, Cambridge, Mass.), rabbit polyclonal anti-Ser428-pATR (Cell Signaling, Danvers, Mass.), rabbit polyclonal anti-Thr68-pCHK2 (Cell Signaling), rabbit monoclonal anti-CHK2 (D9C6, Cell Signaling), rabbit monoclonal anti-Ser345-pCHK1 (Cell Signaling), and rabbit monoclonal anti-CHK1 (E250, Millipore).
# (§3) Proteins were visualized with horseradish peroxidase-conjugated anti-mouse and anti-rabbit immunoglobulin G (Thermo Scientific, Rockford, Ill.) and the SuperSignal West Pico Chemiluminescent Substrate detection system (Thermo Scientific).
# hypoxic A549 cells = experiment: Chronogenic survival assay in hypoxic versus normoxic A549 cells; details: hypoxia vs normoxia, 24 hours treatment
# Procedure: (§4) A number of cancer cells lines were tested for effectness of (−)-lomaiviticin A or MK7-206. These cell lines are DNA damage response deficient cells (DDR-deficient cancer cells, indicated in FIGS. 16-24) or hypoxic cells (indicated in FIG. 25). The indicated cells were seeded at 500 cells per well in 6-23ll dishes and treated with various concentrations of (−)-lomaiviticin A at the indicated concentrations indicated in FIGS. 16-25 for a period of 24 hours, after which time the media containing the inhibitor was removed and replaced with fresh media. Colonies were fixed with 0.9% saline solution and stained with crystal violet 8-14 days later. Colonies consistent of greater than 50 cells were counted. Experiments utilizing MK7-206 for the cell lines which are presented in attached FIG. 28 (Table 2) and FIG. 30 (Table 4) were also conducted (at higher concentrations than for (−)lomaiviticin A).
# hypoxic MCF7 cells = experiment: Chronogenic survival assay in hypoxic versus normoxic MCF7 cells; details: hypoxia vs normoxia, 24 hours treatment
# Procedure: as §4
# pATR = experiment: Western blotting of treated MCF7 cells, pATR; details: 24 hour treatment, listed as LA
# Procedure: as §1, §2, §3
# [1] = tested on: DDR-deficient cancer cells (BRCA2, pten, KU80 and DNApk); experiment: Chronogenic survival assay in DNA damage response deficient cancer cell lines
# Procedure: as §4
# pATM = experiment: Western blotting of treated MCF7 cells, pATM; details: 24 hour treatment
# Procedure: as §1, §2, §3
# pCHK2 = experiment: Western blotting of treated MCF7 cells, pCHK2; details: 24 hour treatment
# Procedure: as §1, §2, §3
substance,measurement,setting,value
(−)-lomaiviticin A,change in pCHK1 (western blot),pCHK1,no increase
same,sensitivity of hypoxic cells compared with normoxic cells,hypoxic A549 cells,more sensitive
same,sensitivity of hypoxic cells compared with normoxic cells,hypoxic MCF7 cells,more sensitive
same,change in pATR (western blot),pATR,no increase
same,sensitivity of DDR-deficient cells to the compound,"[1]; DDR-deficient (BRCA2, pten, KU80, DNApk) cells, 24 hours treatment, colonies stained 8-14 days later",more sensitive; also recorded: particularly susceptible
same,efficacy against cell lines in which DNA damage repair systems are deficient or down regulated,[1]; FIGS. 27-30,excellent efficacy
same,change in pATM (western blot),pATM,increase
same,change in pCHK2 (western blot),pCHK2,increase
